Results as given in a melting point compilation (Tetko et al.; mined from patent text by program, amines drawn as free bases though some values may be those of a salt).

| SMILES | melting point |
| --- | --- |
| CCCCCCCCCCCCCCCCOC(=O)Nc1ccc(NC(=O)NS(=O)(=O)c2ccc3ccccc3c2)cc1 | 183 °C |
| CCc1cnc2c(c1)ON(C(C)(C(N)=O)C(C)C)O2 (configuration not stated) | 114 to 117 °C |
| CC(C)(C)c1nc(C(=O)c2cccs2)nc(C(C)(C)C)c1O | 158 to 159 °C |
| CC=Cc1c(-c2ccc(S(C)(=O)=O)cc2)cnn(-c2ccc(F)c(F)c2)c1=O | 149 to 150 °C |
| CC1=C2CCc3cc(Cl)ccc3N2CCC1=O | 112 to 114 °C |
| CC(NC(=O)Cc1cc(F)cc(F)c1)C(=O)C1(N)N=C(c2ccccc2F)c2ccccc2N(C)C1=O (configuration not stated) | 185 to 188 °C |
| O=c1oc(-c2ccccc2)cc(O)c1SCc1cccc(OCCc2ccccc2)c1 | 85 to 90 °C |
| COC(=O)C=CC=CCSc1ccc(Cl)cc1 | 75 to 77 °C |
| CCS(=O)(=O)Nc1ccc(F)c([N+](=O)[O-])c1 | 133 to 136 °C |
| CCOC(=O)c1cnn(-c2ccc(C)cc2)n1 | 61 to 62 °C |
| CC(=O)c1cc(CC2CO2)c(OCCCCC#N)cc1O (configuration not stated) | 86 to 87 °C |
| COC(=O)c1cccc(Cn2c(=O)c(=O)[nH]c3cc([N+](=O)[O-])ccc32)c1 | 265 to 267 °C |
| CC1(O)CN(C(=O)c2cc(C(C)(C)C)c(O)c(C(C)(C)C)c2)C1 | 148 to 153 °C |
| O=C(N[C@H](Cc1cccc(C(F)(F)F)c1)[C@@H](O)c1ccc(F)cc1)c1cccc2ccccc12 (racemic) | 158 to 159 °C |
| COC(=O)CON1C(=O)c2ccccc2C1=O | 137 to 142 °C |
| CC(C)n1nc(-c2sc(NC(=O)c3cccc(Cl)c3)nc2-c2ccccc2)ccc1=O | 173 to 174 °C |
| COC1=CC(OC)(OC)CC=C1C(=O)OCC(=O)c1ccccc1 | 97 to 98 °C |
| C/C=C(/c1ccc(C(=O)O)cc1)c1ccc2c(c1)C(C)(C)CCC2(C)C | 212 °C |
| OCCC#Cc1ccc(-c2ccc(F)cc2)cc1 | 134 °C |

| SMILES | melting point |
| --- | --- |
| Cc1ccc(S(=O)(=O)Oc2ccc(C(c3ccc(OS(=O)(=O)c4ccc(C)cc4)c([N+](=O)[O-])c3)(C(F)(F)F)C(F)(F)F)cc2[N+](=O)[O-])cc1 | 206 to 208 °C |
| O=C(Cl)c1ccc2cc(C(=O)Cl)ccc2c1 | 186 °C |
| Cn1c(=O)cc(CCc2cccc(Cl)c2)c2cc(C(N)(c3ccc(Cl)cc3)c3cccnc3)ccc21 (configuration not stated) | 90 °C |
| CCc1ccc(N(C(=O)CCl)c2c(F)c(F)cc(F)c2F)cc1 | 72 °C |
| CCN(CC)C(=O)c1ccoc1-c1ccc(C=O)cc1 | 64 to 66 °C |
| CCOC(=O)c1ccc(C=Cc2cc3ccccc3s2)s1 | 116 to 117 °C |
| N#Cc1ccc(OCCNc2ccc(C(=O)O)cc2)c2ccccc12 | 254 to 256 °C |
| CCOC(=O)C(=CNN(C)C=O)C(=O)c1cc(F)c(F)c(F)c1F | 189 °C |
| CCCCCCCC(=O)NCc1cccc(-c2ccc(C=CC(=O)O)cc2)c1 | 176 °C |
| COC(=O)C(=C/c1cc(OC)c(OC)c(OC)c1)/C(=C\c1ccccc1)C(N)=O | 144 to 146 °C |
| CCN(CC)CCNC(=O)c1c[nH]c2ccc(I)cc2c1=O | 234 to 236 °C |
| CS(=O)Cc1ccc2oc([N+](=O)[O-])c(-c3ccccc3)c2c1 (configuration not stated) | 162 to 165 °C |
| CN(c1ccccc1)c1ccc(-c2nc(C#N)c(C#N)nc2C#N)cc1 | 187 °C |
| Cc1cc(-c2c(Cl)c(=O)c2=O)c2c(C)ccc(C(C)C)cc1-2 | 138 to 139 °C |
| Cc1cccc2nc3sccn3c(=O)c12 | 148 to 150 °C |
| COc1cccc(C2CCCN(C(=O)Cc3cc4ccccc4o3)C2)c1 (configuration not stated) | 175 to 176 °C |
| N#CCc1c[nH]c2ccc(NC(=O)Nc3ccccc3)cc12 | 217 to 219 °C |
| COc1ccc(C2(c3ccc(N(C)C)cc3)OC(=O)c3ccc(N(C)C)cc32)cc1 (configuration not stated) | 156 to 161 °C |
| COC(=O)N1C(=O)C=CC1=O | 61 to 63 °C |

| SMILES | melting point |
| --- | --- |
| CC(C)c1c(C=O)c(-c2ccc(F)cc2)n2ccccc12 | 97 to 98 °C |
| O=C(O)c1cccnc1Nc1cccc([N+](=O)[O-])c1 | 262 to 264 °C |
| O=S1(=O)NCCc2ccc(Oc3ccccc3)cc21 | 129 to 132 °C |
| CC1(C)CC(N2CCCC2)c2sccc2O1 (configuration not stated) | 49 to 50 °C |
| COC(=O)N[C@@H]1CCc2ccc(Br)cc2C1 | 99 to 100 °C |
| CCOC(Cc1ccc(OCCN2c3ccccc3Oc3ccccc32)cc1)C(=O)O (configuration not stated) | 86 to 102 °C |
| COc1cc(OC)c2c(=O)[nH]c(-c3ccccn3)nc2c1 | 215 to 217 °C |
| CCCOc1ccc(S(=O)(=O)Cl)cc1C(N)=O | 122 to 129 °C |
| COC(=O)/C=C/c1cccc(-c2c(CC(=O)Nc3ccc(Cl)cc3C(F)(F)F)c(=O)oc3cc(Cl)c(C)cc23)c1 | 202 to 204 °C |
| CSc1ccc(Cl)c(C(=O)Nc2ccc(-n3nc(C(F)(F)F)cc3C3CC3)cc2)c1 | 172 to 177 °C |
| CCNc1ccc(NCCO)cc1[N+](=O)[O-] | 106 °C |
| CN1Cc2c(-c3noc(CCl)n3)ncn2-c2cccc(F)c2C1=O | 206 °C |
| CC(=O)OC1CSC(Oc2ccc(-c3ccc(F)nc3)nc2)C(OC(C)=O)C1OC(C)=O (configuration not stated) | 185 °C |
| CC1=Nc2ccccc2C(=O)C1 | 198 to 200 °C |
| CCOC(=O)C1=C(C)NC(C)=C(C(=O)OC2CCCCC2)C1c1cccc([N+](=O)[O-])c1 (configuration not stated) | 135 °C |
| COc1ccccc1C(=O)NCC(=O)N1c2ccccc2N(Cc2ccccc2)C(=O)C2CCCC21 (configuration not stated) | 187 to 188 °C |
| CCOc1ccccc1-c1ncc(C#N)c(=O)[nH]1 | 186 to 187 °C |
| CC(C)n1nnnc1CCCn1ccc2cc(NC(=O)c3nc4ccc(Cl)cc4n3Cc3ccccc3)ccc21 | 190 to 191 °C |

Now from value to compound:

| melting point | SMILES |
| --- | --- |
| 141 to 142 °C | CCCN1C(=O)C(NC(=O)Nc2cccc(N(C)c3nnn[nH]3)c2)N=C(N2CCN(C)CC2)c2ccccc21 (single isomer, unassigned; (-)) |
| 222 °C | O=C(c1ccc(Cl)cc1)c1sc2cc(O)ccc2c1-c1ccccc1 |
| 249 to 251 °C | COc1cc(-c2ccc3cnc(Nc4ccc(C5CCN(CC(N)=O)CC5)cc4)nn23)c(OC)nn1 |
| 223 to 225 °C | Cc1ccc(-c2nc(Cl)nc(Cl)c2-c2ccc(Cl)cc2)cc1 |
| 244 to 246 °C | Cc1ccc(-c2c(C3CCN(C)CC3)[nH]c(=O)c3ccccc23)cc1 |
| 225 °C | CNC(=O)c1ccccc1Nc1nc(Nc2cc3c(cc2OC)CCN(CC(=O)N(C)C)CC3)ncc1Br |
| 111 to 112 °C | COC(=O)c1cc(C)c(C(OC(=O)C(Cc2ccccc2)NS(=O)(=O)c2ccc(C)cc2)c2cc(-n3ccnc3)ccc2C)c(C)c1 (configuration not stated) |
| 187 to 188 °C | COC(=O)c1ccc(Cn2nc(CO)c3ccc(C(=O)NCC4CCCC4)cc32)c(OC)c1 |
| 298 to 301 °C | CC(C)(C)c1ccc(C(=O)Nc2cn3nc(-n4cnc(CO)c4)ccc3n2)cc1 |
| 57 to 60 °C | O=C1C(=Cc2ccco2)CCc2cc(OCCc3c[nH]cn3)ccc21 |
| 206 to 208 °C | O=C(NC(=O)c1c(F)cccc1F)Nc1ccc2c(c1)SC(c1ccc(Cl)cc1Cl)O2 (configuration not stated) |
| 219 °C | OC1CSC(Oc2ccc(-c3ccnc(F)c3)nc2)C(O)C1O (configuration not stated) |
| 153 to 155 °C | CCCCc1nc2c(N)nc3ccccc3c2n1CCCCCCCCNC(=O)Nc1ccccc1 |
| 122 °C | COc1ccc([C@H](CC(=O)O)N2CCN(CCCc3ccc4c(n3)NCCC4)C2=O)cn1 |
| 60 °C | CCCCCCCNC(=O)Oc1ccc2c(c1)CCCN2C |
| 196 to 198 °C | O=C(NCc1ccc(O)cc1)C12CC3CC(CC(C3)C1)C2 |
| 106 to 107 °C | CC(C)CCOc1ccc(C(=O)c2c(N)sc3c2CCN(Cc2ccccc2)C3)cc1 |
| 157 to 159 °C | CCC(C)Sc1cc(C(=O)O)cc(N)c1Oc1ccccc1 (configuration not stated) |
| 34 to 35 °C | Cc1ccc2c(c1)C(=O)c1ccccc1CC2 |
| 140 to 143 °C | O=C1CCCN(C(=O)c2ccc([N+](=O)[O-])cc2Cl)c2ccccc21 |
| 153 to 155 °C | COc1ccc(N2CCN(c3c(C)c(C)c4c(c3C)CC3(CCOCC3)O4)CC2)cc1 |

| melting point | SMILES |
| --- | --- |
| 156 to 160 °C | COc1cc(OC)c(-c2c[nH]c(C3CC3)n2)cc1C=CC(=O)c1ccc(S(N)(=O)=O)cc1 |
| 108 to 110 °C | CC(=O)N[C@H]1C[C@H](C)N(C(=O)OC(C)(C)C)C1 |
| 214 °C | Cc1ccc(S(=O)(=O)Cc2c(C#N)nn(-c3ccccc3)c2O)cc1 |
| 229 to 231 °C | CC(=O)N(C)c1cccc(OC(CCc2ccc(Cl)cc2)Cn2ccnc2)c1 (configuration not stated) |
| 88 °C | CC(C)(C)OC(=O)C(Br)c1ccc(Cl)c(Cl)c1 (racemic) |
| 120 °C | COC(=O)c1cc(-c2ccc(Cl)cc2)nn1Cc1ccc(Cl)cc1Cl |
| 235 to 236 °C | CC(C)Cn1cnc2c(N)nc3ccc(-c4ccsc4)cc3c21 |
| 182 to 184 °C | c1cnc2ccc(Cn3nnc4ccc(-c5cnn(C6CCOCC6)c5)nc43)cc2c1 |
| 172 to 174 °C | CC(=O)COc1ccn2nc(-c3ccccc3)c(-c3ccc(=O)n(C(C)C)n3)c2c1 |
| 201 to 202 °C | CC1=C(C(=O)OC(C)(C)C)C(c2ccccc2F)C(C(=O)OC(C)(C)C)=C(C)N1 |
| 25 to 27 °C | CCCc1cccnc1N |
| 96.7 °C | CN1CCC(OC(c2ccccc2)c2nc3cccc(N)c3[nH]2)CC1 (configuration not stated) |
| 35 to 35.5 °C | CCCCCC(=O)COS(=O)(=O)c1ccc(OCC)cc1 |
| 176 °C | COc1ccc(C(=O)N(C(=O)c2ccc(OC)cc2)c2nc3ccc(N4CCN(C)CC4)cc3c(NCc3ccccc3)c2C#N)cc1 |
| 204 to 205 °C | Oc1ccc([C@H]2c3ccc(OCc4ccccc4)cc3OC[C@H]2c2ccccc2)cc1 (racemic) |
| 66 to 68 °C | COc1ccc2c(c1)CCC(=CO)C2=O |
| 150 to 151 °C | CCCNCCC1Cc2ccc(-c3ccc(=O)[nH]n3)cc2C1 (configuration not stated) |
| 153 to 154 °C | CCCCCNS(=O)(=O)NC(=O)CCc1ccc(OCCOC)cc1Oc1ncc(C(F)(F)F)cc1Cl |
| 167 to 168 °C | CC(=O)N1CCC(C(=NO)c2ccc(Cl)cc2Cl)CC1 |
| 161 to 166 °C | COC(=O)c1ccc(O)cc1[N+](=O)[O-] |
